Here are results for 5 molecules from patent US7820811B2, “Pro-drugs of adenosine receptor agonists” (CBT Development Limited, priority 2006, dated 2010).

For series [1] the following is noted: oral administration; cited from earlier work.
The conditions of series [2]: monkey, multiple oral dosing, 14C-labelled; cited from earlier work.
The conditions of series [3]: cynamalogous monkeys, cited from earlier work.
The next series deals with adenosine A2A receptor (UniProt P30543). The series can be described thus: EC50 at the adenosine A2A receptor. The series is classed as biochemical. The source says: For the avoidance of doubt, the EC50 value of a compound is defined herein as the concentration of the compound that provokes a receptor response halfway between the baseline receptor response and the maximum receptor response (as determined, for example, using a dose-response curve).
The EC50 value should be determined under standard conditions (balanced salt solutions buffered to pH 7.4). For EC50 determinations using isolated membranes, cells and tissues this would be in buffered salt solution at pH 7.4 (e.g. cell culture medium), for example as in Daly et al., Pharmacol. (1993) 46, 91-100), or preferably as in Tilburg et al (J. Med. Chem. (2002) 45, 91-100). The EC50 could also be determined in vivo by measuring adenosine receptor mediated responses in a normal healthy animal, or even in a tissue perfused under normal conditions (i.e. oxygenated blood, or oxygenated isotonic media, also buffered at pH 7.4) in a normal healthy animal.

Series [4] concerns U937 human macrophage cells. The note with it: cited from earlier work.
For series [5] the following is noted: 20 mg/kg po; cited from earlier work.
The subject of series [6] is carageenan-induced oedema in a rat paw. The note with it: rats, 20 mg/kg po; cited from earlier work.
Series [7] has as its system streptozocin-induced diabetic neuropathy. Description: streptozocin-induced diabetic neuropathy, static allodynia (von Frey hairs). The series is classed as in vivo, rats. The method, then: Diabetes was induced by a single i.p. injection of 50 mg/kg streptozocin (Sigma, 50 mg/ml/kg in citrate buffered saline 33 mM pH 4.5). Control animals received single i.p. injection of citrate buffered saline. […] Static allodynia was assessed using von Frey hairs and the paw withdrawal threshold (PWT) in grams (symbols represent the median and vertical bars represent the first and third quartiles) is indicated.

Series [8] relates to rat adjuvant model of arthritis. The series can be described thus: rat adjuvant model of arthritis, analgesic relief. The series is classed as in vivo.

Molecules are shown by their SMILES.

As for `Nc1nc2c(ncn2COCCO)c(=O)[nH]1` [Acyclovir], the “urinary excretion of Acyclovir” value in series [1] is on record as 19%.

For the molecule `N=C(N)c1ncn([C@@H]2O[C@H](CO)[C@@H](O)[C@H]2O)n1` [Viramidine], in series [2], the “drug level in red blood cells compared to Ribavarin” value is reported as “only half” and the “drug level in the liver compared to Ribavarin” value was “three times”.

As for `Nc1ccn([C@@H]2C[C@@H](O)[C@H](CO)O2)c(=O)n1` [2′-deoxy-β-L-cytidine], the “oral bioavailability (of 2′-deoxy-β-L-cytidine)” value in [3] (oral) was 18%. Further, the “half-life (po)” value in series [3] (po) is reported as 2.95 h.

Consider `CC(C)[C@H](N)C(=O)OCCOCn1cnc2c(=O)[nH]c(N)nc21` [Valacyclovir], for which the “urinary excretion of Acyclovir” value in series [1] is 63%.

For orientation: EC50 means the midpoint of the concentration-response curve. A higher EC50 goes with a less potent agent. With `COc1nc(N)c2ncn([C@@H]3O[C@H](CO)[C@@H](O)[C@H]3O)c2n1` [spongosine, 2-methoxyadenosine], the EC50 at adenosine A2A receptor was approximately 1 µM. The “phorbol ester induced TNF alpha release” value in [4] is recorded as “reduce phorbol ester induced TNF alpha release”. In series [5], the “reduction in heart rate” value was 25% and the “reduction in mean blood pressure” value is on record as 41%. The “inhibition of carageenan-induced inflammation” value in series [6] was 25%. The “alleviation of allodynia at late time points” value in series [7] (2.1 mg/kg dose cohort at 2, 3 and 4 hours) is recorded as “Significant alleviation of allodynia was still evident”. Besides, the “dose dependence of reversal of streptozocin induced static allodynia” value in [7] (0.6-2.1 mg/kg, po, STZ rats, PWT) is “dose dependant effects”. Also, the “reversal of static allodynia, all doses” value in series [7] (all doses 0.6-2.1 mg/kg po, STZ rats, PWT) is listed as “effective at reversing allodynia”. Moreover, the “reversal of static allodynia, top dose” value in [7] (top dose (2.1 mg/kg po), versus naïve non-streptozocin injected controls) is “fully reversed the allodynia”. In series [8], the “minimum plasma concentration giving maximal analgesic relief” value is 0.06 µM.
